# Test results taken from patent EP0290583B1, “$g(a) OLIGONUCLEOTIDES” (CENTRE NATIONAL DE LA RECHERCHE SCIENTIFIQUE (CNRS), priority 1986, dated 1988).
# Assays:
# [1] = tested on: fragment d'ADN double brin; experiment: Specific cleavage of double-stranded DNA by a phenanthroline-coupled alpha-oligonucleotide; assay type: biochemical; settings: en présence de 1 mM spermine
# Procedure: (§1) L'α-D-oligonucléotide décrit à l'exemple XIV (5µM) est dissous dans un tampon à pH 7 contenant 10 mM cacodylate de sodium et 0,1 M NaCl. […] Du sulfate cuivrique (1µM) et de l'acide β-mercaptopropionique (1 mM) sont ajoutés à 0°C et le mélange est incubé à 0°C pendant 3 heures. De la bathocuproine est ajoutée pour arrêter la réaction. Le mélange est disposé sur un gel de polyacrylamide à 18 % et soumis à l'électrophorèse.
# La position des sites de coupure sur le double brin indique que l'α-D-oligothymidylate XIV est orienté parallèlement au brin contenant la séquence A₈.
# [2] = tested on: fragment d'ADN simple brin (10 nM) de séquence d(^5'TGAGTGAGTAAAAAAAATGAGTGCCAA^3'); experiment: Specific cleavage of single-stranded DNA by a phenanthroline-coupled alpha-oligonucleotide; assay type: biochemical; settings: 5µM, sulfate cuivrique (1µM), acide β-mercaptopropionique (1 mM), 0°C, 3 heures
# Procedure: as §1
# β-d^5'[GAGTTTAGA]^3' = experiment: Complex formation with the antiparallel beta strand; assay type: binding; settings: antiparallel sequence; 10 mM cacodylate de sodium/0,1M NaCl, pH = 7, 10 µM
# Source text: (§2) Les nouveaux produits de formule générale (I) selon l'invention et les produits de formule générale (I) dans laquelle L représente un atome d'oxygène, R et R' représentent chacun un atome d'hydrogène et B représente un base nucléique naturelle forment des complexes d'hybridation avec les séquences complémentaires d'ARN beaucoup plus stables que ceux qui sont formés avec l'ADN. La stabilité peut être mesurée par la température de demi-transition des complexes (T 1/2) lors d'une élévation de température. Les valeurs de T 1/2 sont déterminées à la concentration de 10⁻⁵M en α -oligonucléotide dans un tampon à pH = 7 contenant du cacodylate de sodium (10⁻²M) et du chlorure de sodium (0,1 M). Les résultats sont rassemblés dans les Tableaux I.
# (§3) Dans les hybrides formés par les dérivés des α-oligonucléotides selon l'invention avec les séquences d'acides nucléiques complémentaires les deux brins possèdent généralement la même orientation.
# β-d^5' [AGATTTGAG]^3' = experiment: Half-dissociation temperature (T 1/2) of the hybridisation complex with a parallel complementary beta strand; assay type: binding; settings: 10 mM cacodylate de sodium/0,1M NaCl, pH = 7, 10 µM
# Source text: as §2, §3
# [3] = tested on: β-d^5' (ApCpGpGpApApTpApTpApGpC]^3'; experiment: as above; assay type: binding; settings: 10 mM cacodylate de sodium/0,1M NaCl, pH = 7, 10 µM
# Source text: as §2, §3
substance,measurement,setting,value
(Phe-CH₂)α-[(sp)(Tp)₇T] [XIV],coupure de l'ADN double brin,[1],induit des coupures sur les deux brins de la double hélice
same,coupure de l'ADN simple brin (sites de coupures),[2],sites de coupures sont révélés
Acr(CH₂)₅ α-d^5'[TCTAAACTC]^3',complexe mis en évidence au-dessus de 0°C,β-d^5'[GAGTTTAGA]^3',Aucun complexe
same,température de demi-dissociation (T 1/2),β-d^5' [AGATTTGAG]^3',27 °C
[Acr(CH₂)₅]α-d(pCpCpTpTpApTpApTpT) [Acr(CH₂)₅-α-d^5' [pCpCpTpTpApTpApTpT]^3'],température de demi-dissociation (T 1/2),[3],35 °C
